Laboratory results taken from PubChem BioAssay AID1963831 (Molecular Pharmacology Branch, DTP, NCI, 2024).

System: 889142-216-R-J1-PDC complex spheroid viability
Assay: Anticancer human tumor 889142-216-R-J1-PDC patient-derived bladder carcinoma cell line growth inhibition [POLQ]
Conditions: for IC50: curve of first compound; for viability, T/C: stronger effect = lower value
Procedure, shortened: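 PDC + HUVEC + MSC complex spheroids; POLQ inhibitors ± partner drugs; top conc. at/near clinical Cmax, else 10 microM (SN-38 1 microM), half-log dilutions; 37 degrees C, 5% CO2.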
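Also: spheroids exposed to compounds for seven days.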
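For viability, T/C in this document: 100% = DMSO vehicle control viability.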

**Q.** How did the IC50 (second compound 0.0316 µM) turn out when `CC(=O)O[C@H]1C(=O)[C@@]2(C)[C@H]([C@H](OC(=O)c3ccccc3)[C@]3(O)C[C@H](OC(=O)[C@H](O)[C@@H](NC(=O)c4ccccc4)c4ccccc4)C(C)=C1C3(C)C)[C@]1(OC(C)=O)CO[C@@H]1C[C@@H]2O` + Cc1cccc(N(C)C(=O)C2C(O)CCN2c2nc(C)cc(C(F)(F)F)c2C#N)c1 was run?
**A.** Its IC50 is over 3 µM.

**Q.** And the IC50 (second compound 0.1 µM)?
**A.** Its IC50 is 0.344 µM.

**Q.** What about the IC50 (second compound 0.316 µM) of the same compound?
**A.** The IC50 was over 3 µM.

**Q.** And the IC50 (second compound 1 µM)?
**A.** The IC50 was over 3 µM.

**Q.** And the IC50 (second compound 3.16 µM)?
**A.** The IC50 was 0.0095 µM.

**Q.** And the IC50 (second compound 10 µM)?
**A.** Its IC50 is under 0.00949 µM.

**Q.** What about the viability, T/C (second compound 0.0316 µM, first compound 0.00949 µM) of the same compound?
**A.** The viability, T/C was 50.8%.

**Q.** What about the viability, T/C (second compound 0.0316 µM, first compound 0.03 µM) of the same compound?
**A.** Its viability, T/C is 45.5%.

**Q.** And the viability, T/C (second compound 0.0316 µM, first compound 0.0949 µM)?
**A.** Its viability, T/C is 57.5%.

**Q.** What about the viability, T/C (second compound 0.0316 µM, first compound 0.3 µM) of the same compound?
**A.** The viability, T/C was 47.5%.

**Q.** And the viability, T/C (second compound 0.0316 µM, first compound 0.949 µM)?
**A.** The viability, T/C was 53.1%.

**Q.** And the viability, T/C (second compound 0.0316 µM, first compound 3 µM)?
**A.** Its viability, T/C is 57.5%.

**Q.** What about the viability, T/C (second compound 0.1 µM, first compound 0.00949 µM) of the same compound?
**A.** The viability, T/C was 51.4%.

**Q.** And the viability, T/C (second compound 0.1 µM, first compound 0.03 µM)?
**A.** Its viability, T/C is 56.5%.

**Q.** And the viability, T/C (second compound 0.1 µM, first compound 0.0949 µM)?
**A.** Its viability, T/C is 42.7%.

**Q.** And the viability, T/C (second compound 0.1 µM, first compound 0.3 µM)?
**A.** The viability, T/C was 44.4%.

**Q.** What about the viability, T/C (second compound 0.1 µM, first compound 0.949 µM) of the same compound?
**A.** The viability, T/C was 59%.

**Q.** What about the viability, T/C (second compound 0.1 µM, first compound 3 µM) of the same compound?
**A.** The viability, T/C was 47.3%.

**Q.** What about the viability, T/C (second compound 0.316 µM, first compound 0.00949 µM) of the same compound?
**A.** Its viability, T/C is 56.7%.

**Q.** What about the viability, T/C (second compound 0.316 µM, first compound 0.03 µM) of the same compound?
**A.** The viability, T/C was 50.6%.

**Q.** What about the viability, T/C (second compound 0.316 µM, first compound 0.0949 µM) of the same compound?
**A.** Its viability, T/C is 46.8%.

**Q.** What about the viability, T/C (second compound 0.316 µM, first compound 0.3 µM) of the same compound?
**A.** The viability, T/C was 49.1%.

**Q.** And the viability, T/C (second compound 0.316 µM, first compound 0.949 µM)?
**A.** Its viability, T/C is 59.4%.

**Q.** What about the viability, T/C (second compound 0.316 µM, first compound 3 µM) of the same compound?
**A.** Its viability, T/C is 50.3%.

**Q.** What about the viability, T/C (second compound 1 µM, first compound 0.00949 µM) of the same compound?
**A.** Its viability, T/C is 52%.

**Q.** What about the viability, T/C (second compound 1 µM, first compound 0.03 µM) of the same compound?
**A.** Its viability, T/C is 54%.

**Q.** And the viability, T/C (second compound 1 µM, first compound 0.0949 µM)?
**A.** The viability, T/C was 48.8%.

**Q.** What about the viability, T/C (second compound 1 µM, first compound 0.3 µM) of the same compound?
**A.** Its viability, T/C is 49.5%.

**Q.** What about the viability, T/C (second compound 1 µM, first compound 0.949 µM) of the same compound?
**A.** Its viability, T/C is 52.2%.

**Q.** And the viability, T/C (second compound 1 µM, first compound 3 µM)?
**A.** Its viability, T/C is 53.4%.

**Q.** What about the viability, T/C (second compound 3.16 µM, first compound 0.00949 µM) of the same compound?
**A.** The viability, T/C was 49.8%.

**Q.** And the viability, T/C (second compound 3.16 µM, first compound 0.03 µM)?
**A.** The viability, T/C was 48.4%.

**Q.** What about the viability, T/C (second compound 3.16 µM, first compound 0.0949 µM) of the same compound?
**A.** Its viability, T/C is 46.7%.

**Q.** And the viability, T/C (second compound 3.16 µM, first compound 0.3 µM)?
**A.** The viability, T/C was 56.9%.

**Q.** And the viability, T/C (second compound 3.16 µM, first compound 0.949 µM)?
**A.** Its viability, T/C is 48.3%.

**Q.** What about the viability, T/C (second compound 3.16 µM, first compound 3 µM) of the same compound?
**A.** The viability, T/C was 46%.

**Q.** And the viability, T/C (second compound 10 µM, first compound 0.00949 µM)?
**A.** The viability, T/C was 50.5%.

**Q.** What about the viability, T/C (second compound 10 µM, first compound 0.03 µM) of the same compound?
**A.** The viability, T/C was 45.4%.

**Q.** And the viability, T/C (second compound 10 µM, first compound 0.0949 µM)?
**A.** The viability, T/C was 46.9%.

**Q.** What about the viability, T/C (second compound 10 µM, first compound 0.3 µM) of the same compound?
**A.** The viability, T/C was 48.2%.

**Q.** What about the viability, T/C (second compound 10 µM, first compound 0.949 µM) of the same compound?
**A.** Its viability, T/C is 44%.

**Q.** And the viability, T/C (second compound 10 µM, first compound 3 µM)?
**A.** Its viability, T/C is 52.7%.

**Q.** For `COc1cc(C2c3cc4c(cc3C(OC3OC5COC(C)OC5C(O)C3O)C3COC(=O)C23)OCO4)cc(OC)c1O` (centres undefined) + Cc1cccc(N(C)C(=O)C2C(O)CCN2c2nc(C)cc(C(F)(F)F)c2C#N)c1, which IC50 (second compound 0.0316 µM) is on record?
**A.** Its IC50 is over 10 µM.

**Q.** What about the IC50 (second compound 0.1 µM) of the same compound?
**A.** The IC50 was over 10 µM.

**Q.** What about the IC50 (second compound 0.316 µM) of the same compound?
**A.** Its IC50 is over 10 µM.

**Q.** What about the IC50 (second compound 1 µM) of the same compound?
**A.** The IC50 was over 10 µM.

**Q.** What about the IC50 (second compound 3.16 µM) of the same compound?
**A.** The IC50 was over 10 µM.

**Q.** And the IC50 (second compound 10 µM)?
**A.** The IC50 was 4.63 µM.

**Q.** What about the viability, T/C (second compound 0.0316 µM, first compound 0.0316 µM) of the same compound?
**A.** The viability, T/C was 83.9%.

**Q.** What about the viability, T/C (second compound 0.0316 µM, first compound 0.1 µM) of the same compound?
**A.** The viability, T/C was 74.5%.

**Q.** And the viability, T/C (second compound 0.0316 µM, first compound 0.316 µM)?
**A.** The viability, T/C was 65.3%.

**Q.** And the viability, T/C (second compound 0.0316 µM, first compound 1 µM)?
**A.** Its viability, T/C is 53.5%.

**Q.** And the viability, T/C (second compound 0.0316 µM, first compound 3.16 µM)?
**A.** Its viability, T/C is 65.1%.

**Q.** And the viability, T/C (second compound 0.0316 µM, first compound 10 µM)?
**A.** The viability, T/C was 66%.

**Q.** What about the viability, T/C (second compound 0.1 µM, first compound 0.0316 µM) of the same compound?
**A.** Its viability, T/C is 82.6%.

**Q.** And the viability, T/C (second compound 0.1 µM, first compound 0.1 µM)?
**A.** Its viability, T/C is 85.2%.

**Q.** And the viability, T/C (second compound 0.1 µM, first compound 0.316 µM)?
**A.** The viability, T/C was 70.9%.

**Q.** And the viability, T/C (second compound 0.1 µM, first compound 1 µM)?
**A.** Its viability, T/C is 56.4%.

**Q.** And the viability, T/C (second compound 0.1 µM, first compound 3.16 µM)?
**A.** Its viability, T/C is 68.5%.

**Q.** And the viability, T/C (second compound 0.1 µM, first compound 10 µM)?
**A.** The viability, T/C was 57.6%.

**Q.** What about the viability, T/C (second compound 0.316 µM, first compound 0.0316 µM) of the same compound?
**A.** Its viability, T/C is 93.1%.

**Q.** What about the viability, T/C (second compound 0.316 µM, first compound 0.1 µM) of the same compound?
**A.** Its viability, T/C is 86.9%.

**Q.** And the viability, T/C (second compound 0.316 µM, first compound 0.316 µM)?
**A.** Its viability, T/C is 59.4%.

**Q.** What about the viability, T/C (second compound 0.316 µM, first compound 1 µM) of the same compound?
**A.** The viability, T/C was 64%.

**Q.** What about the viability, T/C (second compound 0.316 µM, first compound 3.16 µM) of the same compound?
**A.** The viability, T/C was 70.1%.

**Q.** What about the viability, T/C (second compound 0.316 µM, first compound 10 µM) of the same compound?
**A.** Its viability, T/C is 52.6%.

**Q.** What about the viability, T/C (second compound 1 µM, first compound 0.0316 µM) of the same compound?
**A.** Its viability, T/C is 86.2%.

**Q.** What about the viability, T/C (second compound 1 µM, first compound 0.1 µM) of the same compound?
**A.** The viability, T/C was 83.6%.

**Q.** What about the viability, T/C (second compound 1 µM, first compound 0.316 µM) of the same compound?
**A.** The viability, T/C was 62%.

**Q.** And the viability, T/C (second compound 1 µM, first compound 1 µM)?
**A.** Its viability, T/C is 45.9%.

**Q.** And the viability, T/C (second compound 1 µM, first compound 3.16 µM)?
**A.** Its viability, T/C is 70.6%.

**Q.** And the viability, T/C (second compound 1 µM, first compound 10 µM)?
**A.** The viability, T/C was 58.8%.

**Q.** What about the viability, T/C (second compound 3.16 µM, first compound 0.0316 µM) of the same compound?
**A.** Its viability, T/C is 83%.

**Q.** And the viability, T/C (second compound 3.16 µM, first compound 0.1 µM)?
**A.** Its viability, T/C is 81.2%.

**Q.** What about the viability, T/C (second compound 3.16 µM, first compound 0.316 µM) of the same compound?
**A.** Its viability, T/C is 64.2%.

**Q.** And the viability, T/C (second compound 3.16 µM, first compound 1 µM)?
**A.** The viability, T/C was 62.1%.

**Q.** What about the viability, T/C (second compound 3.16 µM, first compound 3.16 µM) of the same compound?
**A.** Its viability, T/C is 62.4%.

**Q.** What about the viability, T/C (second compound 3.16 µM, first compound 10 µM) of the same compound?
**A.** The viability, T/C was 52.4%.

**Q.** What about the viability, T/C (second compound 10 µM, first compound 0.0316 µM) of the same compound?
**A.** The viability, T/C was 77.4%.

**Q.** What about the viability, T/C (second compound 10 µM, first compound 0.1 µM) of the same compound?
**A.** Its viability, T/C is 74.1%.

**Q.** What about the viability, T/C (second compound 10 µM, first compound 0.316 µM) of the same compound?
**A.** Its viability, T/C is 61%.

**Q.** What about the viability, T/C (second compound 10 µM, first compound 1 µM) of the same compound?
**A.** Its viability, T/C is 61%.

**Q.** And the viability, T/C (second compound 10 µM, first compound 3.16 µM)?
**A.** Its viability, T/C is 59.8%.

**Q.** What about the viability, T/C (second compound 10 µM, first compound 10 µM) of the same compound?
**A.** Its viability, T/C is 40.4%.
